Data: patent publication US20140179615A1, “Glutathione and Acetaminophen Composition and Preparation Method Thereof” (Hainan Weikang Pharmaceutical (Qianshan) Co., Ltd., priority 2012, published 2014)

Tests used:
[1] = tested on: healthy male Kunming mice; experiment: Impact on liver damage in mice: serum AST and ALT activity after gavage; format: in vivo; conditions: gavage 0.5 g/kg, 4 d at intervals of 24 h, mean ± spread, 10 mice per group
Method: 1. Materials: healthy male Kunming mice (weight: 20-22 g)
Divide 50 mice into 5 Groups: Control Group, Model Group, Embodiment Group 1, Embodiment Group 2 and Embodiment Group 3; 10 mice for each group. The mice are fed freely two days and fasted 16 h before the experiment. Experimental Treatment: the mice respectively of Control Group, Model Group, Embodiment Group 1, Embodiment Group 2 and Embodiment Group 3 are separately given normal saline, acetaminophen solution (0.5 g/kg), tablets (0.5 g/kg) made in Embodiment 1, oral solution (0.5 g/kg) made in Embodiment 2, and granules made in Embodiment 3 by gavage. The mice are treated continuously 4 d at intervals of 24 h. The mice of control group are given 1% sodium carboxymethylcellulose (0.15 g/kg) by gavage 1 h after last treatment and sacrificed by cervical dislocation after 24 h.
Preparation of Blood Serum: take blood from mouse carotid artery, stand the blood, then make it centrifuged at 3,000 r/min for 15 min to separate out the serum, and put the serum in refrigerator (−20° C.) for storage.
Measuring Indicator and Method: take the prepared serum on Sigma95308 automatic biochemistry analyzer to determine the activity of aspartate transaminase (AST/GOT) and alanine aminotransferase (ALT/GPT).
Impact of Embodiments on Liver Damage

[2] = after taken, cited from earlier work

Question: With `CC(=O)Nc1ccc(O)cc1` [Model Group, Acetaminophen] as the compound, how does the “ALT (alanine aminotransferase, ALT/GPT) activity in serum” value [1] read?
Answer: 87.8 ± 9.5 IU · L^−1

Question: And the “AST (aspartate transaminase, AST/GOT) activity in serum” value [1]?
Answer: 245.6 ± 18.3 IU · L^−1

Question: What about the “Share combined with glucuronide” value ([2]; liver metabolism) of the same compound?
Answer: 60%

Question: And the “Share combined with sulfuric acid” value ([2]; liver metabolism)?
Answer: 30%

Question: What about the “Share metabolized by liver cytochrome P450 oxidase system to NAPQI” value [2] of the same compound?
Answer: 4%-5

Question: And the “Share of acetaminophen metabolized by the liver” value [2]?
Answer: 90%
